Like-named read-outs stand apart in the source and are kept apart here.
Tests used:
[1] = system: C57/BL6 mice; experiment: Oral glucose tolerance test (OGTT) in C57/BL6 mice; type: in vivo, mouse; details: Mus musculus, 2 h, serum glucose AUC, single oral dose, glucose load 3 gm/kg, read-out: % reduction in AUC at 50 mg/kg
Procedure: Oral Glucose Tolerance Tests (OGTT) in C57/BL6 Mice:
C57/BL6 mice of 6-8 week age are used for this experiment. Animals are grouped based on non-fasting serum glucose levels and kept on fasting for overnight (day before OGTT). On the experiment day, […], 30 min post dosing animals are bled for basal glucose level estimation and at the same time glucose load (3 gm/kg) will be administered per orally. Blood is collected at time points corresponding to 20, 40, 60 and 120 min after glucose load administration. Serum is separated for determination of glucose levels and change in area under curve for glucose is calculated and provided in table 4 as % reduction in AUC.

[2] = molecular target: T1, recombinant human GPR 119 receptor (Homo sapiens, UniProt Q8TDV5); experiment: cAMP assay in stable cell line expressing recombinant human GPR 119 receptor; type: cell-based; details: intracellular cAMP
T1 construct: expressed in transfected cells
T1 sequence (Q8TDV5 1-335): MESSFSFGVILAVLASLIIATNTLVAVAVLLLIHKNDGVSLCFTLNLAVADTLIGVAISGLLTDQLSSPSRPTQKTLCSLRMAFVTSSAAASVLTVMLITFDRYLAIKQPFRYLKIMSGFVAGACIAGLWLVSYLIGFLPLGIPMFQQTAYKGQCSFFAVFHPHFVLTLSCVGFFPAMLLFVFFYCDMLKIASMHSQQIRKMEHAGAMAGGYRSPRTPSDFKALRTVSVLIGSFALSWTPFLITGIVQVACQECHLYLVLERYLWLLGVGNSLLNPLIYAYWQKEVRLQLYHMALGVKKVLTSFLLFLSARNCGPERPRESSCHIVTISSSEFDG
Description: cAMP assay: A stable cell line expressing recombinant human GPR 119 receptor was established and used to investigate the efficacy of the compounds of the invention based on the intracellular levels of cyclic AMP (cAMP) using commercially available cAMP kits. Compounds of the invention produced a concentration dependent increase in cAMP level and EC50 values of representative compounds were provided in table 1.

[3] = system: Sprague Dawley rats; experiment: Feed intake in Sprague Dawley rats; type: in vivo, rat; details: Rattus norvegicus, cumulative feed intake vs vehicle; for inhibition in vivo at 25 mg/kg: ip, intraperitoneal; for inhibition in vivo at 50 mg/kg: oral
Description: In Vivo Efficacy Studies: Feed Intake in Sprague Dawley Rats:
Sprague Dawley rats of 6-8 week age are used for this experiment they are kept for acclimatization in reversed light/dark cycle for 15 days. Animals will have free access to a standard chow diet and water during acclimatization period. After 15 days reversed light/dark cycle acclimatization animals are trained for fasting induced feed intake for 5 days till they show consistent feed intake. Grouping was done based on the monitored feed intake during the training days. On treatment day each group of animals are dosed with test compound or vehicle by appropriate routes of administration (orally or intraperitoneally). Exactly 30 min. after treatment, measured amount of standard chow diet is provided and recorded as O-min feed offered. Then subsequently 2, 4, 6 and 24 hour after O-min, feed intake is measured and the cumulative feed intakes are calculated. The change in cumulative feed intake as compared to vehicle treated control at each time point is calculated for test compound.

[4] = 2 hour, read-out: % reduction in food in take, 2 hour
[5] = 4 hour, read-out: % reduction in food in take, 4 hour
[6] = 6 hour, read-out: % reduction in food in take, 6 hour
[7] = 24 hour, read-out: % reduction in food in take, 24 hour

Compound | inhibition in vivo at 50 mg/kg [1] [%] | EC50 [2] [nM] | inhibition in vivo at 25 mg/kg [3, 4] [%] | inhibition in vivo at 25 mg/kg [3, 5] [%] | inhibition in vivo at 25 mg/kg [3, 6] [%] | inhibition in vivo at 25 mg/kg [3, 7] [%] | inhibition in vivo at 50 mg/kg [3, 4] [%] | inhibition in vivo at 50 mg/kg [3, 5] [%] | inhibition in vivo at 50 mg/kg [3, 6] [%] | inhibition in vivo at 50 mg/kg [3, 7] [%]
CC(C)c1noc(C2CCN(c3ncnc(Oc4ccc([C@H]5CO[S@@](=O)OC5)cc4)c3[N+](=O)[O-])CC2)n1 [Example 1, cis-5-(4-((6-(4-(3-isopropyl-1,2,4-oxadiazol-5-yl)piperidin-1-yl)-5-nitropyrimidin-4-yl)oxy)phenyl)-1,3,2-dioxathiane 2-oxide] | 23 | 31 | 45 | 24 | 8.5 | 4 | – | – | – | –
Cc1c(Oc2ccc([C@H]3CO[S@@](=O)OC3)cc2)ncnc1OC1CCN(c2nc(C(C)C)no2)CC1 [Example 3, cis-5-(4-((6-((1-(3-isopropyl-1,2,4-oxadiazol-5-yl)piperidin-4-yl)oxy)-5-methylpyrimidin-4-yl)oxy)phenyl)-1,3,2-dioxathiane 2-oxide] | 23 | 13 | 34 | 25 | 25 | 17 | – | – | – | –
Cc1c(Oc2ccc([C@H]3CO[S@](=O)OC3)cc2)ncnc1OC1CCN(c2nc(C(C)C)no2)CC1 [Example 4, trans-5-(4-((6-((1-(3-isopropyl-1,2,4-oxadiazol-5-yl)piperidin-4-yl)oxy)-5-methylpyrimidin-4-yl)oxy)phenyl)-1,3,2-dioxathiane 2-oxide] | 31 | 11 | 40 | 33 | 21 | – | 30 | 24 | 9.5 | 6
CCc1cnc(N2CCC(Oc3ncnc(Oc4ccc([C@H]5CO[S@@](=O)OC5)cc4)c3C)CC2)nc1 [Example 9, cis-5-(4-((6-((1-(5-ethylpyrimidin-2-yl)piperidin-4-yl)oxy)-5-methylpyrimidin-4-yl)oxy)phenyl)-1,3,2-dioxathiane 2-oxide] | 31 | 12 | 44 | 37 | 30 | 24 | 25 | 12 | 6 | 2
CCc1cnc(N2CCC(Oc3ncnc(Oc4ccc([C@H]5CO[S@](=O)OC5)cc4)c3C)CC2)nc1 [Example 10, trans-5-(4-((6-((1-(5-ethylpyrimidin-2-yl)piperidin-4-yl)oxy)-5-methylpyrimidin-4-yl)oxy)phenyl)-1,3,2-dioxathiane 2-oxide] | 29 | 73.6 | – | – | – | – | 36 | 29 | 15 | 15
Cc1c(Oc2ccc([C@H]3CO[S@](=O)OC3)cc2)ncnc1OC1CCN(C(=O)OC(C)(C)C)CC1 [Example 16, trans-tert-butyl 4-((5-methyl-6-(4-(2-oxido-1,3,2-dioxathian-5-yl)phenoxy)pyrimidin-4-yl)oxy)piperidine-1-carboxylate] | 34 | 15 | 21 | 27 | 10 | – | – | – | – | –
Cc1c(Oc2ccc([C@H]3CO[S@@](=O)OC3)cc2)ncnc1OC1CCN(C(=O)OCC(C)C)CC1 [Example 27, cis-isobutyl 4-((5-methyl-6-(4-(2-oxido-1,3,2-dioxathian-5-yl)phenoxy)pyrimidin-4-yl)oxy)piperidine-1-carboxylate] | 30 | 27 | 35 | 35 | 31 | 17 | 23 | 20 | 23 | 5
Cc1c(Oc2ccc([C@H]3CO[S@](=O)OC3)cc2)ncnc1OC1CCN(C(=O)OCC(C)C)CC1 [Example 28, trans-isobutyl 4-((5-methyl-6-(4-(2-oxido-1,3,2-dioxathian-5-yl)phenoxy)pyrimidin-4-yl)oxy)piperidine-1-carboxylate] | 40 | 57 | 67 | 59 | 40 | 24 | 24 | 19 | 9 | 2
CCc1cnc(N2CCC(Oc3ncnc(Oc4ccc(C[C@H]5CO[S@](=O)OC5)cc4)c3C)CC2)nc1 [Example 32, trans-5-(4-((6-((1-(5-ethylpyrimidin-2-yl)piperidin-4-yl)oxy)-5-methylpyrimidin-4-yl)oxy)benzyl)-1,3,2-dioxathiane 2-oxide] | 41 | 86 | 50 | 37 | 32 | 18 | – | – | – | –
CCOC(=O)N1CCC(Oc2ncnc(Oc3ccc([C@H]4CO[S@@](=O)OC4)cc3)c2C)CC1 [Example 33, cis-ethyl 4-((5-methyl-6-(4-(2-oxido-1,3,2-dioxathian-5-yl)phenoxy)pyrimidin-4-yl)oxy)piperidine-1-carboxylate] | 30 | 86 | 70 | 44 | 24 | 21 | – | – | – | –
CCOC(=O)N1CCC(Oc2ncnc(Oc3ccc([C@H]4CO[S@](=O)OC4)cc3)c2C)CC1 [Example 34, trans-ethyl 4-((5-methyl-6-(4-(2-oxido-1,3,2-dioxathian-5-yl)phenoxy)pyrimidin-4-yl)oxy)piperidine-1-carboxylate] | 27 | 93 | 45 | 30 | 19 | 10 | – | – | – | –
Cc1c(Oc2ccc(C[C@H]3CO[S@](=O)OC3)cc2)ncnc1OC1CCN(C(=O)OCC(C)C)CC1 [Example 44, trans-isobutyl 4-((5-methyl-6-(4-((2-oxido-1,3,2-dioxathian-5-yl)methyl)phenoxy)pyrimidin-4-yl)oxy)piperidine-1-carboxylate] | 31 | 108 | – | – | – | – | 38 | 30 | 24 | 7

Source: US8772302B2, “GPR 119 agonists” (Cadila Healthcare Limited, priority 2009, dated 2014)
